Experimental data taken from patent US9447136B2, “Semisynthetic derivatives of Nystatin A1” (BLIRT S.A., priority 2012, dated 2016).
In brackets after ≈: the same amount, converted by molar mass.

Experiments:
[1] = test system: Aspergillus niger LOCK E201; test: Antifungal activity in vitro, serial dilution in RPMI 1640; format: cell-based; settings: Table 2B
In short: (§1)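 In buffered RPMI 1640 at pH 7.0, fungi were exposed to serially diluted compound (M27-A2 standard) and turbidity was recorded at 531 nm. Values relative to control: IC50 at 50%, MIC as lowest concentration at ≤20%.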

[2] = test system: Candida albicans ATCC 10231; test: as above; format: cell-based; settings: Table 2B
In short: as §1

Candida arborea KKP 319 = test: as above; format: cell-based; settings: Table 2B
In short: as §1

[3] = test system: Candida dubliniensis CBS 7987; test: as above; format: cell-based; settings: Table 2B
In short: as §1

[4] = test system: Candida lipolytica KKP 322; test: as above; format: cell-based; settings: Table 2B
In short: as §1

[5] = test system: Candida parapsilosis DSM 5784; test: as above; format: cell-based; settings: Table 2B
In short: as §1

[6] = test system: Candida pseudotropicalis KKP 324; test: as above; format: cell-based; settings: Table 2B
In short: as §1

[7] = test system: Candida quilliermondii DSM 11947; test: as above; format: cell-based; settings: Table 2B
In short: as §1

[8] = test system: Candida stellatoidea CBS 1905; test: as above; format: cell-based; settings: Table 2B
In short: as §1

[9] = test system: Saccharomyces cerevisiae ATCC 9763; test: as above; format: cell-based; settings: Table 2B
In short: as §1

[10] = test system: Trichoderma viride LOCK E159; test: as above; format: cell-based; settings: Table 2B
In short: as §1

Candida albicans 5674 = test: Antifungal activity towards resistant (MDR) strains; format: cell-based
Experimental: (§2) The determination of antifungal activity was performed by the serial dilutions method in buffered RPMI 1640 medium, in a 96-wells microplates, according to the standard procedure (National Committee for Clinical Laboratory Standards. Reference method for broth dilution antifungal susceptibility testing of yeast, approved standard, 2nd ed. M27-A2 vol. 22 Wayne, Pa., 2002). The optical density of cells suspension was measured using a microplates reader (Victor^3, Perkin-Elmer) at the wavelength λ=660 nm (A660). On the basis of received results the diagrams on interrelation between the A660 value and the concentration of tested compound were made. From these graphs MIC values were read, that are the concentrations of tested compounds, in the presence at which A660 value is at most 20% of A660 value measured in control sample.

Candida albicans B3 = test: as above; format: cell-based; settings: fluconazole sensitive, parent strain for B4
Experimental: as §2

Candida albicans B4 = test: as above; format: cell-based
Experimental: as §2

Candida albicans F2 = test: as above; format: cell-based; settings: fluconazole sensitive, parent strain for F5
Experimental: as §2

Candida albicans F5 = test: as above; format: cell-based
Experimental: as §2

Candida albicans Gu4 = test: as above; format: cell-based; settings: fluconazole sensitive, parent strain for Gu5
Experimental: as §2

Candida albicans Gu5 = test: as above; format: cell-based; settings: fluconazole-resistant due to the overexpression of CDR1 and CDR2
Experimental: as §2

Candida albicans STY19 = test: as above; format: cell-based
Experimental: as §2

Candida albicans STY31 = test: as above; format: cell-based
Experimental: as §2

Candida albicans STY7 = test: as above; format: cell-based
Experimental: as §2

Human erythrocytes = test: Hemotoxicity (hemolytic activity)
Experimental: The hemotoxicity determination were carried out by the serial dilutions method, according to the procedure described earlier (Ślisz, M., et al., E., J Antibiot 57: 669-678 (2004)). Human erythrocytes were suspensed in the solution of saline to obtain a cell density of suspension 2×10^7/ml. Suitable amounts of diluted solutions of compounds were added to the cell suspension in tubes and were incubated at 37° C. for 30 minutes and then centrifuged (1700×g, 10 min, 4° C.). The concentration of hemoglobin in supernatant after centrifugation of erythrocytes suspension were determined by measuring the absorbance at wavelength λ=540 nm (A540). The maximum level of hemolysis was obtained after incubation of cells suspension in the presence of 0.1% Tritone X-100 (control sample). […] From these graphs, the EH50 values were read which are the interpolated concentrations of compound, for which the A540 value is exactly 50% of the A540 value measured for the control sample.

Molecule OC(Cn1cncn1)(Cn1cncn1)c1ccc(F)cc1F [Fluconazole, reference compound] has an MIC ([1]; Aspergillus niger, LOCKE201) of 16 µg/mL (≈ 52.2 µM), an MIC ([2]; Candida albicans, ATCC10231) of 2 µg/mL (≈ 6.53 µM) and an MIC (Candida arborea KKP 319; Candida, KKP319) of 8 µg/mL (≈ 26.1 µM). It also gave an MIC ([3]; Candida dubliniensis, CBS7987) of 2 µg/mL (≈ 6.53 µM), an MIC ([4]; Yarrowia lipolytica, KKP322) of 8 µg/mL (≈ 26.1 µM) and an MIC ([5]; Lodderomyces parapsilosis, DSM5784) of 8 µg/mL (≈ 26.1 µM). For the same molecule, the MIC ([6]; Kluyveromyces marxianus, KKP324) was 0.5 µg/mL (≈ 1.63 µM), the MIC ([7]; Candida, DSM11947) was 8 µg/mL (≈ 26.1 µM) and the MIC ([8]; Candida albicans, CBS1905) was 0.5 µg/mL (≈ 1.63 µM). For the same molecule, the MIC ([9]; Saccharomyces cerevisiae, ATCC9763) was 2 µg/mL (≈ 6.53 µM), the MIC ([10]; Trichoderma viride, LOCKE159) was 8 µg/mL (≈ 26.1 µM) and the MIC (Candida albicans 5674; Candida albicans, 5674, read-out: MIC Candida albicans 5674) was 2050 µg/mL (≈ 6690 µM). It also gave an MIC (Candida albicans B3; Candida albicans, B3) of 0.5 µg/mL (≈ 1.63 µM), an MIC (Candida albicans B4; Candida albicans, B4, read-out: MIC Candida albicans B4) of 16 µg/mL (≈ 52.2 µM) and an MIC (Candida albicans F2; Candida albicans, F2) of 32 µg/mL (≈ 104 µM). For the same molecule, the MIC (Candida albicans F5; Candida albicans, F5, read-out: MIC Candida albicans F5) was 128 µg/mL (≈ 418 µM), the MIC (Candida albicans Gu4; Candida albicans, GU4) was 0.5 µg/mL (≈ 1.63 µM) and the MIC (Candida albicans Gu5; Candida albicans, GU5) was 256 µg/mL (≈ 836 µM). It also gave an MIC (Candida albicans STY19; Candida albicans, STY19, read-out: MIC Candida albicans STY19) of 64 µg/mL (≈ 209 µM), an MIC (Candida albicans STY31; Candida albicans, STY31, read-out: MIC Candida albicans STY31) of 64 µg/mL (≈ 209 µM) and an MIC (Candida albicans STY7; Candida albicans, STY7, read-out: MIC Candida albicans STY7) of 512 µg/mL (≈ 1670 µM).
In the case of C[C@@H]1[C@H](O)[C@@H](C)/C=C/C=C/CC/C=C/C=C/C=C/C=C/[C@H](O[C@@H]2O[C@H](C)[C@@H](O)[C@H](NC(=O)[C@H](N)c3ccccc3)[C@@H]2O)C[C@@H]2O[C@](O)(C[C@@H](O)C[C@@H](O)[C@H](O)CC[C@@H](O)C[C@@H](O)CC(=O)O[C@H]1C)C[C@H](O)[C@H]2C(=O)O [Compound N33, N-D-phenylglycylnystatin A1], the “MIC Aspergillus niger LOCK E201” value [1] is reported as 32 µg/mL (≈ 30.2 µM), the “MIC Candida albicans ATCC 10231” value [2] is reported as 8 µg/mL (≈ 7.55 µM) and the “MIC Candida arborea KKP 319” value (Candida arborea KKP 319) is reported as 32 µg/mL (≈ 30.2 µM). For the same molecule, the “MIC Candida dubliniensis CBS 7987” value [3] was 16 µg/mL (≈ 15.1 µM), the “MIC Candida lipolytica KKP 322” value [4] was 16 µg/mL (≈ 15.1 µM) and the “MIC Candida parapsilosis DSM 5784” value [5] was 32 µg/mL (≈ 30.2 µM). For the same molecule, the “MIC Candida pseudotropicalis KKP 324” value [6] was 8 µg/mL (≈ 7.55 µM), the “MIC Candida quilliermondii DSM 11947” value [7] was 16 µg/mL (≈ 15.1 µM) and the “MIC Candida stellatoidea CBS 1905” value [8] was 8 µg/mL (≈ 7.55 µM). For the same molecule, the “MIC Saccharomyces cerevisiae ATCC 9763” value [9] was 4 µg/mL (≈ 3.78 µM), the “MIC Trichoderma viride LOCK E159” value [10] was 32 µg/mL (≈ 30.2 µM) and the “% of hemolysis at the concentration 300 μg ml^−1” value (Human erythrocytes) was 8.69%. For the same molecule, the EH10 (Human erythrocytes) was greater than 300 µg/mL, the “MIC Candida albicans 5674” value (Candida albicans 5674; C. albicans 5674 overexpressing CDR1 and CDR2) was 16 µg/mL (≈ 15.1 µM) and the “MIC Candida albicans B3” value (Candida albicans B3) was 4 µg/mL (≈ 3.78 µM). For the same molecule, the “MIC Candida albicans B4” value (Candida albicans B4; fluconazole-resistant due to the overexpression of CaMDR1) was 8 µg/mL (≈ 7.55 µM), the “MIC Candida albicans F2” value (Candida albicans F2) was 16 µg/mL (≈ 15.1 µM) and the “MIC Candida albicans F5” value (Candida albicans F5; fluconazole-resistant due to the overexpression of CaMDR1 and ERG11) was 32 µg/mL (≈ 30.2 µM). For the same molecule, the “MIC Candida albicans Gu4” value (Candida albicans Gu4) was 8 µg/mL (≈ 7.55 µM), the “MIC Candida albicans Gu5” value (Candida albicans Gu5) was 8 µg/mL (≈ 7.55 µM) and the “MIC Candida albicans STY19” value (Candida albicans STY19; 5674 mutant derivative, deletion of CDR1) was 16 µg/mL (≈ 15.1 µM). For the same molecule, the “MIC Candida albicans STY31” value (Candida albicans STY31; 5674 mutant derivative, deletion of CDR1 and CDR2) was 16 µg/mL (≈ 15.1 µM) and the “MIC Candida albicans STY7” value (Candida albicans STY7; 5674 mutant derivative, deletion of CDR2) was 16 µg/mL (≈ 15.1 µM).
